Data taken from patent US5629321A, “Bicyclic compound and platelet aggregation inhibitor containing the same” (Mitsui Toatsu Chemicals, Inc., priority 1994, dated 1997).
pIC50: −log10 of the molar value. Where a name gives a salt, the structure may show the parent alone.

Assays:
platelet aggregation [1] = assay: Inhibition of platelet aggregation in Guinea pig (ADP-induced, platelet-rich plasma); type: cell-based, male guinea pig; conditions: Cavia porcellus, guinea pig PRP, ADP final concentration 5 μM, 37° C.
Description: 1. Inhibition of platelet aggregation in Guinea pig
Blood of male guinea pig was collected with an injection syringe which contains 3.8% sodium citrate as an anticoagulant in a ratio of 1 volume to 9 volumes of the blood. Successively, the collected blood mixture was subjected to centrifugation at 120×g for 15 minutes at room temperature to obtain platelet-rich plasma (PRP). The residual blood after separating PRP was further subjected to centrifugation at 1,200×g for 15 minutes to obtain platelet-poor plasma (PPP). Numbers of the platelet in PRP were measured with an automatic platelet counter: Sysmex PL-100 (manufactured by Toa Iyodensi Co.) and PRP was diluted with PPP so as to adjust a platelet concentration to be about 300,000 particles/μ 1. Platelet aggregation was measured by the following procedure with a 6 channel aggregometer: HEMA TRACER 1 (manufactured by NKK Co.).
(§1) After warming 240 μl of PRP at 37° C. for 2 minutes, 30 μl of the solvent of specimen as a control or of the specimen having various concentrations was added to PRP. Further 2 minutes later, 30 μl of adenosine diphosphate (final concentration: 5 μM) was added to induce platelet aggregation. An inhibition percentage was obtained by comparing the maximum aggregation rate of the specimen drug group with that of control. […]

platelet aggregation [2] = assay: Inhibition of platelet aggregation in human (ADP-induced, platelet-rich plasma); type: cell-based; conditions: human PRP, ADP final concentration 5 μM, 37° C.
Description: 2. Inhibition of platelet aggregation in human
Blood was collected from healthy human volunteers with an injection syringe and mixed one volume of 3.8% sodium citrate as an anticoagulant to 9 volumes of the blood. Successively, the obtained blood mixture was subjected to centrifugation at 120×g for 15 minutes at room temperature to obtain platelet-rich plasma (PRP). The residual blood after separating the PRP was further subjected to centrifugation at 1,200×g for 20 minutes to obtain platelet-poor plasma (PPP). Numbers of the platelet were measured with an automatic platelet counter: Sysmex PL-100 (manufactured by Toa Iyodensi Co.) and PRP was diluted with PPP so as to adjust a platelet concentration to be about 250,000 particles/μl. Platelet aggregation was measured by the following procedure with a 6 channel aggregometer: HEMA TRACER 1 (manufactured by NKK Co.)
as §1, with “or” for “or of”

pIC50 (platelet aggregation [1]) | pIC50 (platelet aggregation [2]) | SMILES
4.62 |  | N=C(N)c1ccc(CNc2ccc3c(c2)CC(CC(=O)O)CC3)cc1 (stereo not shown) [Compound No. 84, 7-[(4-amidinobenzyl)amino]-1,2,3,4-tetrahydronaphthalene-2-acetic acid]
4.92 |  | N=C(N)c1ccc(COc2ccc3c(c2)CC(CC(=O)O)CO3)cc1 (stereo not shown) [Compound No. 89, 6-[(4-amidinobenzyl)oxy]chroman-3-acetic acid]
4.77 |  | CCOC(=O)CC1COc2ccc(OCc3ccc(C(=N)N)cc3)cc2C1 (stereo not shown) [Compound No. 90, ethyl 6-[(4-amidinobenzyl)oxy]chroman-3-acetate]
4.39 |  | N=C(N)c1ccc(COc2ccc3c(c2)C=C(CC(=O)O)CC3)cc1 [Compound No. 91, 7-[(4-amidinobenzyl)oxy]-3,4-dihydronaphthalene-2-acetic acid]
4.57 |  | N=C(N)Nc1ccc(C(=O)Nc2ccc3c(c2)CC(CC(=O)O)CC3)cc1 (stereo not shown) [Compound No. 93, 7-[(4-guanidinobenzoyl)amino]-1,2,3,4-tetrahydronaphthalene-2-acetic acid]
4.85 |  | NCc1ccc(C(=O)Nc2ccc3c(c2)CC(CC(=O)O)CC3)cc1 (stereo not shown) [Compound No. 123, 7-[(4-aminomethylbenzoyl)amino]-1,2,3,4-tetrahydronaphthalene-2-acetic acid]
5.37 |  | CCOC(=O)CN1CCc2ccc(C(=O)Nc3ccc(C(=N)N)cc3)cc2C1 [compound 37, ethyl 7-[N-(4-amidinophenyl)carbamoyl]-1,2,3,4-tetrahydroisoquinoline-2-acetate]

The next lines start with the molecule.

SMILES | pIC50 (platelet aggregation [1]) | pIC50 (platelet aggregation [2])
N=C(N)c1ccc(C(=O)Nc2ccc3c(c2)C(=O)N(CC(=O)O)CC3)cc1 [Comparative compound, 7-[(4-amidinobenzoyl)amino]-l-oxo-3,4-dihydroisoquinolone-2-acetic acid hydrochloride, reference compound] | < 4.00 | 5.41
N=C(N)c1ccc(C(=O)Nc2ccc3c(c2)CC(CC(=O)O)CC3)cc1 (stereo not shown) [Compound No. 1, 7-[(4-amidinobenzoyl)amino]-1,2,3,4-tetrahydronaphthalene-2-acetic acid] | 6.43 | 7.24
CCOC(=O)CC1CCc2ccc(NC(=O)c3ccc(C(=N)N)cc3)cc2C1 (stereo not shown) [Compound No. 3, ethyl 7-[(4-amidinobenzoyl)amino]-1,2,3,4-tetrahydronaphthalene-2-acetate] | 6.40 | 
N=C(N)c1ccc(NC(=O)c2ccc3c(c2)CC(CC(=O)O)CC3)cc1 (stereo not shown) [Compound No. 9, 7-[N-(4-amidinophenyl)carbamoyl]-1,2,3,4-tetrahydronaphthalene-2-acetic acid] | 6.64 | 7.34
CCOC(=O)CC1CCc2ccc(C(=O)Nc3ccc(C(=N)N)cc3)cc2C1 (stereo not shown) [Compound No. 11, ethyl 7-[N-(4-amidinophenyl)carbamoyl]-1,2,3,4-tetrahydronaphthalene-2-acetate] | 6.47 | 
N=C(N)c1ccc(C(=O)Nc2ccc3c(c2)CC(CC(=O)O)CO3)cc1 (stereo not shown) [Compound No. 17, 6-[(4-amidinobenzoyl)amino]chroman-3-acetic acid] |  | 7.31
N=C(N)c1ccc(C(=O)Nc2ccc3c(c2)CN(CC(=O)O)CC3)cc1 [Compound No. 28, 7-[(4-amidinobenzoyl)amino]-1,2,3,4-tetrahydroisoquinoline-2-acetic acid] | 5.18 | 6.53
CN(C(=O)c1ccc(C(=N)N)cc1)c1ccc2c(c1)CC(CC(=O)O)CC2 (stereo not shown) [Compound No. 47, 7-[N-(4-amidinobenzoyl)-N-methylamino]-1,2,3,4-tetrahydronaphthalene-2-acetic acid] | 5.75 | 6.71
CN(C(=O)c1ccc2c(c1)CC(CC(=O)O)CC2)c1ccc(C(=N)N)cc1 (stereo not shown) [Compound No. 56, 7-[N-(4-amidinophenyl)-N-methylcarbamoyl]-1,2,3,4-tetrahydronaphthalene-2-acetic acid] | 6.47 | 6.94
N=C(N)c1ccc(COc2ccc3c(c2)CC(CC(=O)O)CC3)cc1 (stereo not shown) [Compound No. 80, 7-[(4-amidinobenzyl)oxy]-1,2,3,4-tetrahydronaphthalene-2-acetic acid] |  | 5.82
COC(=O)CC1CCc2ccc(OCc3ccc(C(=N)N)cc3)cc2C1 (stereo not shown) [Compound No. 81, methyl 7-[(4-amidinobenzyl)oxy]-1,2,3,4-tetrahydronaphthalene-2-acetate] | 4.66 | 
N=C(N)c1ccc(OCc2ccc3c(c2)CC(CC(=O)O)CC3)cc1 (stereo not shown) [Compound No. 82, 7-[(4-amidinophenoxy)methyl]-1,2,3,4-tetrahydronaphthalene-2-acetic acid] | 4.41 | 
